Measured values published in patent US20230192623A1, “Indazole Derivatives” (Hoffmann-La Roche Inc., priority 2020, published 2023).

Target: T1, human cGAS (residues 161-522) (Homo sapiens, UniProt Q8N884)
T1 construct: Recombinantly expressed purified human cGAS (residues 161-522) was used at 25nM; made in house
Assay: Malachite Green assay to measure cGAS activity (coupled enzymatic assay, phosphate detection)
Assay type: biochemical
Conditions: recombinant purified human cGAS 25 nM; 80 μM ATP, 80 μM GTP, 100 nM ISD; 4 hour at RT; absorbance 620 nm
Description: Malachite Green Assay to Measure cGAS Activity
Compounds were tested for cGAS inhibition in a coupled enzymatic assay based on Phosphate detection by Malachite Green. Final assay conditions were 20 mM TRIS pH 7.5 (Applichem), 5 mM MgCl2 (Sigma) and 0.01% BSA (Sigma) supplemented with 80 μM ATP (Sigma), 80 μM GTP (Sigma) and 100 nM Interferon Stimulating DNA (ISD) (Microsynth). Recombinantly expressed purified human cGAS (residues 161-522) was used at 25nM.
All compounds were prepared as 10 mM stock solutions in DMSO and a 16 pt dilution series in DMSO with a dilution factor of 2.5 was prepared. 1 μL of DMSO dilution series was transferred to 32.3 μL reaction buffer, mixed by pipetting up/down, spun for 1 minute at 3000 rpm and was visually inspected for precipitation. 5 μL of 3-fold enzyme stock solution were transferred to an empty 384-well Black/Clear Flat Bottom Polystyrene NBS (Corning) rows 3-24. Rows 1-2 were filled with assay buffer. Plates were spun 10 seconds at 1000 rpm (164×g). 5 μL of compound intermediate dilution was added and mixed by pipetting up/down to rows 3-24. Rows 1-2 were filled with 3.1% DMSO assay buffer. Plates were spun 10 seconds at 1000 rpm (164×g). 5 μL 3-fold Nucleotide/DNA mix was added to all wells to start the reaction. Plates were spun 10 seconds at 1000 rpm (164×g) and incubated for 4 hour at room temperature (RT) in the dark. 5 μL 4U/mL PPase (Sigma) were added to all wells. Plates spun 10 seconds at 1000 rpm (164×g). 10 μL BioMol green Solution (Enzo Life Sciences) was added to all wells. Plates spun 10 seconds at 1000 rpm (164×g) and incubated 30 minutes at RT in the dark. Absorbance data was collected 620 nm on an EnVision Multilable Reader (Perkin Elmer) and the following measurement settings were used: excitation filter photometric was 620 nm; excitation from the top; measurement height was 1 mm; number of flashes was 30; number of flashes integrated was 1.
All plates are checked for abnormalities and outliers in the Blank Control (no protein, row 1) and the Neutral Control (no compound, row 2) are excluded using the 3*SD rule. Data was normalized to 0 and 100% by Blank and Neutral Control and each curve was fitted and judged using the 4 parameter logistic equation to determine the IC50 for cGAS inhibition.
Table 1 provides IC50 values (μM) for cGAS inhibition obtained for particular examples of the present invention as measured by the above-described assay.

T1 sequence (Q8N884 161-522): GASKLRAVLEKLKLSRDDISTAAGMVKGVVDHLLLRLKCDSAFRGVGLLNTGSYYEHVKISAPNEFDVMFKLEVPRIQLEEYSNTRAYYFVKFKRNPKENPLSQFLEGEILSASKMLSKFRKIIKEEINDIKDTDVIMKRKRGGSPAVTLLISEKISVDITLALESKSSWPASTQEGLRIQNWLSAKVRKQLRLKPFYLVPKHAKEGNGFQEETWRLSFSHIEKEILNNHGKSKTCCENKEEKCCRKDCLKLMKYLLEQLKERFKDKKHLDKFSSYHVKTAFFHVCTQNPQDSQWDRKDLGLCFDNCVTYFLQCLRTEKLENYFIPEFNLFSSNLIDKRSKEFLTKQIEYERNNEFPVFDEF

SMILES	IC50
Cc1ccc(-c2cc(C(=O)O)c3cn(CCN4CCN(C)CC4)nc3c2)c(Cl)c1 [Example 1, 6-(2-Chloro-4-methylphenyl)-2-(2-(4-methylpiperazin-1-yl)ethyl)indazole-4-carboxylic acid]	1920 nM
Cc1ccc(-c2cc(C(=O)O)c3cn(Cc4ccccc4Cl)nc3c2)c(Cl)c1 [Example 2, 6-(2-Chloro-4-methylphenyl)-2-[(2-chlorophenyl)methyl]indazole-4-carboxylic acid]	2200 nM
Cc1ccc(-c2cc(C(=O)O)c3cn(Cc4cccc(Cl)c4)nc3c2)c(Cl)c1 [Example 3, 6-(2-Chloro-4-methylphenyl)-2-[(3-chlorophenyl)methyl]indazole-4-carboxylic acid]	3180 nM
Cc1ccc(-c2cc(C(=O)O)c3cn(Cc4ccc(Cl)cc4)nc3c2)c(Cl)c1 [Example 4, 6-(2-Chloro-4-methylphenyl)-2-[(4-chlorophenyl)methyl]indazole-4-carboxylic acid]	2760 nM
Cc1ccc(-c2cc(C(=O)O)c3cn(Cc4nc(C5CC5)no4)nc3c2)c(Cl)c1 [Example 5, 6-(2-Chloro-4-methylphenyl)-2-((3-cyclopropyl-1,2,4-oxadiazol-5-yl)methyl)indazole-4-carboxylic acid]	2210 nM
Cc1ccc(-c2cc(C(=O)O)c3cn(Cc4cccnc4)nc3c2)c(Cl)c1 [Example 6, 6-(2-Chloro-4-methylphenyl)-2-(pyridin-3-ylmethyl)indazole-4-carboxylic acid]	2930 nM
Cc1ccc(-c2cc(C(=O)O)c3cn(Cc4ccccn4)nc3c2)c(Cl)c1 [Example 7, 6-(2-Chloro-4-methylphenyl)-2-(pyridin-2-ylmethyl)indazole-4-carboxylic acid]	2400 nM
Cc1ccc(-c2cc(C(=O)O)c3cn(Cc4nc(C)c(C)o4)nc3c2)c(Cl)c1 [Example 8, 6-(2-Chloro-4-methylphenyl)-2-((4,5-dimethyloxazol-2-yl)methyl)indazole-4-carboxylic acid]	2740 nM
Cc1ccc(-c2cc(C(=O)O)c3cn(CC(F)(F)F)nc3c2)c(Cl)c1 [Example 9, 6-(2-Chloro-4-methylphenyl)-2-(2,2,2-trifluoroethyl)-2H-indazole-4-carboxylic acid]	1560 nM
Cc1ccc(-c2cc(C(=O)O)c3cn(Cc4ccccc4)nc3c2)c(Cl)c1 [Example 10, 2-Benzyl-6-(2-chloro-4-methylphenyl)-2H--indazole-4-carboxylic acid]	1370 nM
Cc1ccc(-c2cc(C(=O)O)c3cn(CCc4ccccc4)nc3c2)c(Cl)c1 [Example 11, 6-(2-Chloro-4-methylphenyl)-2-phenethyl-2H-indazole-4-carboxylic acid]	2350 nM
Cc1cc(Cl)c(-c2cc(C(=O)O)c3cn[nH]c3c2)cc1F [Example 12, 6-(2-Chloro-5-fluoro-4-methylphenyl)-1H-indazole-4-carboxylic acid]	4590 nM
Cc1ccc(-c2cc(C(=O)O)c3cn[nH]c3c2)c(Cl)c1 [Example 13, 6-(2-Chloro-4-methylphenyl)-1H-indazole-4-carboxylic acid]	4460 nM
